For 24 compounds, pest or weed control results are on record in US8598365B2, “Herbicides” (Syngenta Limited, priority 2007, dated 2013).

Holding throughout (assay): Example B post-emergence herbicidal activity
Holding throughout (type): in vivo

Experiment [1] deals with Amaranthus retoflexus (AMARE). The note with it: Amaranthus retroflexus, 312 h, rate 250 g/ha, evaluated after 13 days, read-out: Post-emergence activity AMARE (100=total damage to plant; 0=no damage to plant). As for the experimental part: (§1) Seeds of a variety of test species were sown in standard soil in pots. After cultivation for one day (pre-emergence) or after 8 days cultivation (post-emergence) under controlled conditions in a glasshouse (at 24/16° C., day/night; 14 hours light; 65% humidity), the plants were sprayed with an aqueous spray solution derived from the formulation of the technical active ingredient in acetone/water (50:50) solution containing 0.5% Tween 20 (polyoxyethelyene sorbitan monolaurate, CAS RN 9005-64-5).
(§2) The test plants were then grown in a glasshouse under controlled conditions in a glasshouse (at 24/16° C., day/night; 14 hours light; 65% humidity) and watered twice daily. After 13 days for pre and post-emergence, the test was evaluated (100=total damage to plant; 0=no damage to plant).
(§3) Alopecurus myosuroides (ALOMY), Avena fatua (AVEFA), Setaria faberi (SETFA), Echinochloa crus-galli (ECHCG), Solanum nigrum (SOLNI) and Amaranthus retoflexus (AMARE)

Experiment [2] deals with Setaria faberi (SETFA). Particulars: 312 h, rate 250 g/ha, evaluated after 13 days, read-out: Post-emergence activity SETFA (100=total damage to plant; 0=no damage to plant). As for the experimental part:
as §1, §2, §3

Experiment [3] relates to Avena fatua (AVEFA). The note with it: 312 h, rate 250 g/ha, evaluated after 13 days, read-out: Post-emergence activity AVEFA (100=total damage to plant; 0=no damage to plant). As for the experimental part: as §1, §2, §3
The subject of experiment [4] is Echinochloa crus-galli (ECHCG). The note with it: 312 h, rate 250 g/ha, evaluated after 13 days, read-out: Post-emergence activity ECHCG (100=total damage to plant; 0=no damage to plant). As for the experimental part:
as §1, §2, §3

Experiment [5] concerns Alopecurus myosuroides (ALOMY). The note with it: 312 h, rate 250 g/ha, evaluated after 13 days, read-out: Post-emergence activity ALOMY (100=total damage to plant; 0=no damage to plant). As for the experimental part: as §1, §2, §3

With `CCc1sc(-c2ccsc2)nc1C1C(=O)[C@@H]2CC[C@@H](C2)C1=O` (stereo partly drawn) [Compound T97], the pest or weed control at 250 g/ha in experiment [1] came out at 0%; in experiment [2], 70%; in experiment [3], 0%; in experiment [4] it was 70%; in experiment [5], 0%.
In the case of `Cc1nc(-c2ccc(Cl)c(Cl)c2)sc1C1C(=O)[C@@H]2CC[C@@H](C2)C1=O` (stereo partly drawn) [Compound T48], the pest or weed control at 250 g/ha in experiment [1] came to 0%; in experiment [2], 80%; in experiment [3] it was 0%; in experiment [4], 80%; in experiment [5], 20%.
Regarding `C=Cc1ccc(-c2nc(C3C(=O)[C@@H]4CC[C@@H](C4)C3=O)c(CC)s2)cc1` (stereo partly drawn) [Compound T113], the pest or weed control at 250 g/ha was found to be 0% in experiment [1]; 90% in experiment [2]; 100% in experiment [3]; 100% in experiment [4]; 90% in experiment [5].
`Cc1sc(-c2ccc(C=O)cc2)nc1C1=C(OC(=O)C(C)(C)C)[C@H]2CC[C@H](C2)C1=O` [Compound P23]: the pest or weed control at 250 g/ha was found to be 0% in experiment [1]; 30% in experiment [2]; 0% in experiment [3]; 20% in experiment [4]; 0% in experiment [5].
With `Cc1sc(-c2ccc(C(=O)O)cc2)cc1C1C(=O)C2CCC(C2)C1=O` (stereo not drawn) [Compound T24, 4-[4-(2,4-dioxobicyclo[3.2.1]oct-3-yl)-5-methylthiophen-2-yl]benzoic acid], the pest or weed control at 250 g/ha amounted to 0% in experiment [1]; 30% in experiment [2]; 0% in experiment [3]; 0% in experiment [4]; 0% in experiment [5].
Consider `Cc1sc(-c2ccc(Br)cc2)nc1C1C(=O)[C@H]2C[C@@H](C1=O)C2(C)C` (stereo partly drawn) [Compound T121], for which the pest or weed control at 250 g/ha worked out at 0% in experiment [1]; 90% in experiment [2]; 80% in experiment [3]; 100% in experiment [4]; 70% in experiment [5].
As for `CCc1sc(-c2ccc(OC(C)C)c(Cl)c2)nc1C1C(=O)[C@@H]2CC[C@@H](C2)C1=O` (stereo partly drawn) [Compound T114], the pest or weed control at 250 g/ha in experiment [1] stood at 0%; in experiment [2], 90%; in experiment [3], 0%; in experiment [4] it was 60%; in experiment [5], 10%.
Regarding `O=C1C(c2csc(-c3ccc(Cl)cc3)n2)C(=O)[C@H]2CC[C@@H]1C2` (stereo partly drawn) [Compound T43, 3-[2-(4-chloro-phenyl)thiazol-4-yl]bicyclo[3.2.1]octane-2,4-dione], the pest or weed control at 250 g/ha in experiment [1] was 0%; in experiment [2] it was 60%; in experiment [3] it was 0%; in experiment [4] it was 20%; in experiment [5] it was 20%.
Turning to `CCc1sc(-c2ccc(Cl)cc2)[n+]([O-])c1C1C(=O)[C@@H]2CC[C@@H](C2)C1=O` (stereo partly drawn) [Compound T89], the pest or weed control at 250 g/ha came out at 0% in experiment [1]; 80% in experiment [2]; 0% in experiment [3]; 30% in experiment [4]; 0% in experiment [5].
Turning to `CCc1sc(-c2ccccc2OC)nc1C1C(=O)[C@@H]2CC[C@@H](C2)C1=O` (stereo partly drawn) [Compound T95], the pest or weed control at 250 g/ha in experiment [1] is 0%; in experiment [2] it was 80%; in experiment [3], 30%; in experiment [4], 70%; in experiment [5] it was 80%.
Consider `Cc1sc(-c2ccsc2)nc1C1C(=O)[C@@H]2CC[C@@H](C2)C1=O` (stereo partly drawn) [Compound T60], for which the pest or weed control at 250 g/ha worked out at 0% in experiment [1]; 60% in experiment [2]; 0% in experiment [3]; 50% in experiment [4]; 0% in experiment [5].
As for `Cc1sc(CC(C)C)nc1C1C(=O)[C@@H]2CC[C@@H](C2)C1=O` (stereo partly drawn) [Compound T61], the pest or weed control at 250 g/ha in experiment [1] was 0%; in experiment [2], 20%; in experiment [3] it was 0%; in experiment [4] it was 0%; in experiment [5], 0%.
With `CCOc1ccc(-c2nc(C3C(=O)[C@@H]4CC[C@@H](C4)C3=O)c(CC)s2)cc1F` (stereo partly drawn) [Compound T112], the pest or weed control at 250 g/ha in experiment [1] came to 0%; in experiment [2], 100%; in experiment [3], 80%; in experiment [4], 100%; in experiment [5], 70%.
In the case of `Cc1nc(-c2ccc(Cl)cc2F)sc1C1C(=O)[C@@H]2CC[C@@H](C2)C1=O` (stereo partly drawn) [Compound T47], the pest or weed control at 250 g/ha in experiment [1] turned out to be 0%; in experiment [2], 90%; in experiment [3] it was 0%; in experiment [4] it was 80%; in experiment [5] it was 30%.
Consider `Cc1sc(-c2ccc(Cl)cc2C(F)(F)F)nc1C1C(=O)[C@@H]2CC[C@@H](C2)C1=O` (stereo partly drawn) [Compound T6], for which the pest or weed control at 250 g/ha in experiment [1] was 0%; in experiment [2], 50%; in experiment [3], 0%; in experiment [4], 40%; in experiment [5], 0%.
Consider `Cc1ncc(-c2ccc(Cl)cc2)cc1C1C(=O)[C@@H]2CC[C@@H](C2)C1=O` (stereo partly drawn) [Compound T118], for which the pest or weed control at 250 g/ha came out at 0% in experiment [1]; 80% in experiment [2]; 80% in experiment [3]; 60% in experiment [4]; 60% in experiment [5].
Consider `Cc1sc(-c2ccc(OC(C)C)c(Cl)c2)nc1C1C(=O)[C@@H]2CC[C@@H](C2)C1=O` (stereo partly drawn) [Compound T79], for which the pest or weed control at 250 g/ha in experiment [1] amounted to 0%; in experiment [2], 10%; in experiment [3], 0%; in experiment [4] it was 0%; in experiment [5], 0%.
On to `Cc1sc(-c2ccccc2Cl)nc1C1C(=O)[C@@H]2CC[C@@H](C2)C1=O` (stereo partly drawn) [Compound T71], for which the pest or weed control at 250 g/ha in experiment [1] came to 0%; in experiment [2], 50%; in experiment [3], 0%; in experiment [4], 20%; in experiment [5], 0%.
On to `Cc1scnc1C1C(=O)[C@@H]2CC[C@@H](C2)C1=O` (stereo partly drawn) [Compound T52], for which the pest or weed control at 250 g/ha in experiment [1], in experiment [2], in experiment [3], in experiment [4] and in experiment [5] was 0% in each case.
Regarding `CCc1sc(-c2ccc(C(=O)OC)cc2)nc1C1C(=O)[C@@H]2CC[C@@H](C2)C1=O` (stereo partly drawn) [Compound T107], the pest or weed control at 250 g/ha in experiment [1] is 0%; in experiment [2] it was 0%; in experiment [3], 0%; in experiment [4] it was 60%; in experiment [5], 0%.
With `Cc1oc(-c2ccc(Cl)cc2)nc1C1C(=O)[C@@H]2CC[C@@H](C2)C1=O` (stereo partly drawn) [Compound T90], the pest or weed control at 250 g/ha in experiment [1] amounted to 0%; in experiment [2], 40%; in experiment [3] it was 0%; in experiment [4] it was 30%; in experiment [5], 0%.
For the compound `Cc1nc(-c2ccc(Cl)cc2)sc1C1C(=O)[C@@H]2CC[C@@H](C2)C1=O` (stereo partly drawn) [Compound T31], the pest or weed control at 250 g/ha in experiment [1] came out at 0%; in experiment [2], 80%; in experiment [3] it was 0%; in experiment [4] it was 60%; in experiment [5] it was 0%.
On to `CCc1sc(-c2cccc(Cl)c2Cl)nc1C1C(=O)[C@@H]2CC[C@@H](C2)C1=O` (stereo partly drawn) [Compound T98], for which the pest or weed control at 250 g/ha in experiment [1] was found to be 0%; in experiment [2], 70%; in experiment [3], 0%; in experiment [4] it was 70%; in experiment [5], 20%.
As for `Cc1sc(-c2cccc(Cl)c2Cl)nc1C1C(=O)[C@@H]2CC[C@@H](C2)C1=O` (stereo partly drawn) [Compound T62], the pest or weed control at 250 g/ha in experiment [1] worked out at 0%; in experiment [2], 60%; in experiment [3], 0%; in experiment [4], 0%; in experiment [5], 0%.
